In patent US10519177B2, “Heterocyclic compounds and uses thereof” (Plexxikon Inc., priority 2013, dated 2019):
pIC50: −log10 of the molar value.

How the values were obtained:
[1] = target: BRD4-BD1 (44-164) (Homo sapiens (Human), UniProt O60885); assay: Alphascreen binding assay BRD4-BD1; settings: BRD4(1) H4; read-out: Biochemical activity (IC50 μM) BRD4(1) H4
Experimental: Binding of compounds of formula (I) with bromodomain 2, 3 4 was assessed using Alphascreen binding assay. The inhibition of the interaction between bromodomain and its acetylated target protein (Filippakopoulos P et al. 2012) was measured quantitatively using recombinant BRD proteins, an acetylated Histone 4 peptide and AlphaScreen™ technology. In absence of inhibition the BRD protein bound to AlphaScreen™ nickel chelate acceptor beads can interact with the acetylated Histone 4 peptide which is immobilized by the AlphaScreen™ Streptavidin coated beads. This interaction brings donor and acceptor beads in proximity. The close proximity allows the singlet oxygen produced by laser excitation of the donor beads to reach the acceptor beads and generate a luminescence signal.
Recombinant human bromodomains containing the N-terminal bromodomain (BRD2-BD1 (71-194), BRD3-BD1 (24-144) and BRD4-BD1 (44-164)) or dual bromodomains (BRD4-BD12 (1-477), BRD4-BD12 (1-472)) were prepared and purified as described in protein expression and purification session. The peptide is human Histone H41-21K5AcK8AcK12AcK16Ac-Biotin (Anaspec CA, USA).
Protocol for BRD2, BRD3 and BRD4 assay: All components are prepared in buffer composed of 50 mM HEPES pH 7.5, 100 mM NaCl, 0.01% bovine serum albumin (“BSA”), 0.01% Triton X-100, 2 mM dithiothreitol (“DTT”). 7 μL of Bromodomain protein and 7 μL of peptide are added to wells containing 1 μL of various concentrations of test compounds of formula (I) or DMSO vehicle in an Alphaplate (PerkinElmer GA, USA) and incubated for 1 hour at room temperature. 4 μL donor and acceptor bead mixture is then added with final concentrations of 7.5 μg/ml. 30 minutes after bead addition, Alpha signal is read on the Envision spectrometer (λEx 680 nm, λEm 520-620 nm). Final concentrations of bromodomain proteins and peptide are as shown below.
All data was normalized to the mean of 16 high and 16 low control wells on each plate. A four parameter curve fit of the following formula was then applied: Y=a+(b−a)/(1+(x/c)^d) Where ‘a’ is the minimum, ‘b’ is the maximum, ‘c’ is the pIC50 and ‘d’ is the Hill slope. Protein Expression and Purification
Recombinant human bromodomains containing the N-terminal bromodomain (BRD2-BD1 (71-194), BRD3-BD1 (24-144) and BRD4-BD1 (44-164)) or dual bromodomains (BRD4-BD12 (1-477), BRD4-BD12 (1-472)) were expressed in E. coli cells (in a modified pET vector) with an N-terminal six-His tag and purified using a combination of both IMAC (Ni-affinity) and size exclusion chromatography steps.
Recombinant BRD proteins were expressed using the E. coli strain BL21-CodonPlus (DE3) (Agilent Technologies CA, USA). Cells were grown in Terrific Broth (TB) media to an OD600 of 1.2 at 37° C. at which temperature was reduced to 25° C., protein was induced with 1.0 mM ispropyl-β-D-thiogalactopyranoside (“IPTG”) for 12-18 hours and harvested by centrifugation at 8000×g for 20 minutes. Cells were re-suspended in 0.1M K2PO4 pH 8.0, 250 mM NaCl, 10% Glycerol, 0.75% NP-40, 25 mM Imidazole, 5 mM beta-mercaptoethanol (“BME”) with 0.2 mg/ml Lysosyme, 2.0 mM phenylmethanesulfonyl fluoride (“PMSF”), 25 μg/ml DNAse I, incubated on ice for 30 minutes and lyzed with a cell disruptor (MicroFluidics MA, USA). The lysate was clarified by centrifugation at 20,000×g for 2 hours. The protein was captured with Ni-NTA resin (Life Technologies, USA). Contaminating proteins were washed off with 25 mM Tris-HCl pH 8.3, 250 mM NaCl, 12% Glycerol and 50 mM Imidazole. Following 3× wash steps, protein was eluted step wise using a 50 mM HEPES pH 7.5, 500 mM NaCl and 400 mM Imidazole. The protein was further purified using Gel Filtration column 26/600 Superdex 200 (GE Biosciences NJ, USA) in 50 mM HEPES pH 7.5, 250 mM NaCl. The protein was aliquoted and flash-frozen in liquid Nitrogen.

[2] = system: MV-4-11 cells; assay: Oncology cell growth assay MV-4-11 (CellTiter Glo); assay type: cell-based; settings: Homo sapiens, MV4-11, 72 h; MV-4-11, 3d growth; read-out: Cell activity (IC50 μM) MV-4-11 3d-Growth
Method in brief: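 MV-4-11 AML cells (MLL-AF4), 3000 per well, exposed to 8-point 1:3 compound titration from 10 μM top concentration (0.2% DMSO) for 72 h. Viability by CellTiter Glo luminescence, normalized to DMSO controls; pIC50 from four-parameter curve fit.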

[3] = target: BRD4-BD12 (1-477) (Homo sapiens (Human), UniProt O60885); assay: Alphascreen binding assay BRD4-BD12; settings: BRD4(1 2) H4; read-out: Biochemical activity (IC50 μM) BRD4(1 2) H4
Method in brief: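 First, compound was preincubated 1 h at room temperature with the His-tagged BRD4 protein (BD1 44-164 or tandem BD12 1-477) and acetylated H4 peptide. Next, donor and acceptor beads were added at 7.5 μg/ml final. After 30 min, AlphaScreen emission was recorded.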

[4] = system: bromodomain; assay: at least one of the bromodomain cell assays of Example 57; assay type: cell-based; settings: at least one of the bromodomain cell assays described in Example 57; read-out: IC50 in at least one of the bromodomain cell assays

SMILES	IC50 [1]	IC50 [2]	IC50 [3]	pIC50 [4]
Cc1noc(C)c1-c1cnc2[nH]cc(Cc3cccnc3)c2c1 [P-0003, 3,5-dimethyl-4-[3-(3-pyridylmethyl)-1H-pyrrolo[2,3-b]pyridin-5-yl]isoxazole]	< 1 µM			
Cc1noc(C)c1-c1cnc2[nH]c(C)c(Cc3cccnc3)c2c1 [P-0005, 3,5-dimethyl-4-[2-methyl-3-(3-pyridylmethyl)-1H-pyrrolo[2,3-b]pyridin-5-yl]isoxazole]	< 1 µM			
Cc1noc(C)c1-c1cnc2[nH]c(-c3ccc(F)cc3)c(Cc3cccnc3)c2c1 [P-0007, 4-[2-(4-fluorophenyl)-3-(3-pyridylmethyl)-1H-pyrrolo[2,3-b]pyridin-5-yl]-3,5-dimethyl-isoxazole]	< 1 µM			
Cc1noc(C)c1-c1cnc2[nH]c(C)c(C(O)c3cccnc3)c2c1 (stereo not shown) [P-0009, [5-(3,5-dimethylisoxazol-4-yl)-2-methyl-1H-pyrrolo[2,3-b]pyridin-3-yl]-(3-pyridyl)methanol]	< 1 µM			
COC(=O)c1ccc(-c2cn(CC3CC4(CCC4)C3)c3cc(-c4c(C)noc4C)cnc23)cc1 [P-0602, methyl 4-[6-(3,5-dimethylisoxazol-4-yl)-1-(spiro[3.3]heptan-6-ylmethyl)pyrrolo[3,2-b]pyridin-3-yl]benzoate]		< 1 µM	< 1 µM	> 5.00
Cc1ccc(-c2cn(CC3CCC(F)(F)CC3)c3cc(-c4c(C)noc4C)cnc23)cc1 [P-0604, 4-[1-[(4,4-difluorocyclohexyl)methyl]-3-(p-tolyl)pyrrolo[3,2-b]oyridin-6-yl]-3,5-dimethyl-isoxazole]		< 1 µM	< 1 µM	> 5.00
COc1cc(-c2cn(CC3CCCCC3)c3cc(-c4c(C)noc4C)cnc23)ccc1C(=O)O [P-0700, 4-[1-(cyclohexylmethyl)-6-(3,5-dimethylisoxazol-4-yl)pyrrolo[3,2-b]pyridin-3-yl]-2-methoxy-benzoic acid]		< 1 µM	< 1 µM	> 5.00
COCc1ccc(-c2cn(CC3CCCCC3)c3cc(-c4c(C)noc4C)cnc23)cc1 [P-0705, 4-[1-(cyclohexylmethyl)-3-[4-(methoxymethyl)phenyl]pyrrolo[3,2-b]pyridin-6-yl]-3,5-dimethyl-isoxazole]		< 1 µM	< 1 µM	> 5.00
Cc1noc(C)c1-c1cnc2c(-c3ccc(C(=O)OC(C)C)cc3)cn(CC3CCCCC3)c2c1 [P-0708, isopropyl 4-[1-(cyclohexylmethyl)-6-(3,5-dimethylisoxazol-4-yl)pyrrolo[3,2-b]pyridin-3-yl]benzoate]		< 1 µM	< 1 µM	> 5.00
Cc1noc(C)c1-c1cnc2c(-c3ccc([N+](=O)[O-])nc3)cn(CC3CCCCC3)c2c1 [P-0710, 4-[1-(cyclohexylmethyl)-3-(6-nitro-3-pyridyl)pyrrolo[3,2-b]pyridin-6-yl]-3,5-dimethyl-isoxazole]		< 1 µM	< 1 µM	> 5.00
Cc1noc(C)c1-c1cnc2c(-c3ccc(C(=O)O)cc3)cn([C@@H](c3ccccc3)c3ccccn3)c2c1 [P-0711, 4-[6-(3,5-dimethylisoxazol-4-yl)-1-[(S)-phenyl(2-pyridyl)methyl]pyrrolo[3,2-b]pyridin-3-yl]benzoic acid]		< 1 µM	< 1 µM	> 5.00
Cc1noc(C)c1-c1cnc2c(-c3ccc(C(=O)O)cc3)cn([C@H](c3ccccc3)c3ccccn3)c2c1 [P-0722, 4-[6-(3,5-dimethylisoxazol-4-yl)-1-[(R)-phenyl(2-pyridyl)methyl]pyrrolo[3,2-b]pyridin-3-yl]benzoic acid]		< 1 µM	< 1 µM	> 5.00
Cc1noc(C)c1-c1cnc2c(-c3ccc(C(=O)O)cc3)cn(CC3(C)CCOCC3)c2c1 [P-0774, 4-[6-(3,5-dimethylisoxazol-4-yl)-1-[(4-methyltetrahydropyran-4-yl)methyl]pyrrolo[3,2-b]pyridin-3-yl]benzoic acid]		< 1 µM	< 1 µM	> 5.00
COc1cc(-c2cn(CC3(C)CCOCC3)c3cc(-c4c(C)noc4C)cnc23)ccc1C(=O)O [P-0775, 4-[6-(3,5-dimethylisoxazol-4-yl)-1-[(4-methyltetrahydrpyran-4-yl)methyl]pyrrolo[3,2-b]pyridin-3-yl]-2-methoxy-benzoic acid]		< 1 µM	< 1 µM	> 5.00
Cc1noc(C)c1-c1cnc2c(-c3ccc(CC(=O)O)cc3)cn(CC3(C)CCOCC3)c2c1 [P-0776, 2-[4-[6-(3,5-dimethylisoxazol-4-yl)-1-[(4-methyltetrahydrpyran-4-yl)methyl]pyrrolo[3,2-b]pyridin-3-yl]phenyl]acetic acid]		1 to 10 µM	< 1 µM	> 5.00
Cc1noc(C)c1-c1cnc2c(-c3ccc(C(C)(C)C(=O)O)cc3)cn(CC3(C)CCOCC3)c2c1 [P-0778, 2-[4-[6-(3,5-dimethylisoxazol-4-yl)-1-[(4-methyltetrahydropyran-4-yl)methyl]pyrrolo[3,2-b]pyridin-3-yl]phenyl]-2-methyl-propanoic acid]		1 to 10 µM	< 1 µM	> 5.00
Cc1ccc(-c2cn(CC3(C)CCOCC3)c3cc(-c4c(C)noc4C)cnc23)cc1 [P-0794, 3,5-dimethyl-4-[1-[(4-methyltetrahydropyran-4-yl)methyl]-3-(p-tolyl)pyrrolo[3,2-b]pyridin-6-yl]isoxazole]		1 to 10 µM	< 1 µM	> 5.00
Cc1noc(C)c1-c1cnc2c(-c3ccc(C(C)(C)C)cc3)cn(CC3CCC(F)(F)CC3)c2c1 [P-0802, 4-[3-(4-tert-butylphenyl)-1-[(4,4-difluorocyclohexyl)methyl]pyrrolo[3,2-b]pyridin-6-yl]-3,5-dimethyl-isoxazole]		1 to 10 µM	< 1 µM	> 5.00
Cc1ccc(-c2cn(Cc3ccccn3)c3cc(-c4c(C)noc4C)cnc23)cc1 [P-0805, 3,5-dimethyl-4-[3-(p-tolyl)-1-(2-pyridylmethyl)pyrrolo[3,2-b]pyridin-6-yl]isoxazole]		< 1 µM	< 1 µM	> 5.00
Cc1noc(C)c1-c1cnc2c(-c3ccc(C(C)(C)C)cc3)cn([C@@H](C)c3ccccn3)c2c1 [P-0806, 4-[3-(4-tert-butylphenyl)-1-[(1S)-1-(2-pyridyl)ethyl]pyrrolo[3,2-b]pyridin-6-yl]-3,5-dimethyl-isoxazole]		1 to 10 µM	< 1 µM	> 5.00
